Data reported in PubChem BioAssay AID1963856 (Molecular Pharmacology Branch, DTP, NCI, 2024).

Test system: LG0567-F671-PDC KRAS tumor spheroid viability
Experiment: Anticancer human tumor LG0567-F671-PDC patient-derived lung adenocarcinoma cell line growth inhibition [KRAS2]
Conditions: spheroids with HUVEC and MSC; for IC50: curve of first compound; for viability, T/C: stronger effect = lower value
Summary of the method: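 Combination screen of spheroid viability in tumor-cell co-cultures with endothelial (HUVEC) and mesenchymal stem cell stroma. Each agent was tested in half-log dilutions, topping at clinical Cmax or at 10 microM without a known Cmax.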

[1] = second compound 0.1 µM, first compound 0.000316 µM
[2] = second compound 0.1 µM, first compound 0.001 µM
[3] = second compound 0.1 µM, first compound 0.00316 µM
[4] = second compound 0.1 µM, first compound 0.01 µM
[5] = second compound 0.1 µM, first compound 0.0316 µM
[6] = second compound 0.1 µM, first compound 0.1 µM
[7] = second compound 0.316 µM, first compound 0.000316 µM
[8] = second compound 0.316 µM, first compound 0.001 µM
[9] = second compound 0.316 µM, first compound 0.00316 µM
[10] = second compound 0.316 µM, first compound 0.01 µM
[11] = second compound 0.316 µM, first compound 0.0316 µM
[12] = second compound 0.316 µM, first compound 0.1 µM
[13] = second compound 1 µM, first compound 0.000316 µM
[14] = second compound 1 µM, first compound 0.001 µM
[15] = second compound 1 µM, first compound 0.00316 µM
[16] = second compound 1 µM, first compound 0.01 µM
[17] = second compound 1 µM, first compound 0.0316 µM
[18] = second compound 1 µM, first compound 0.1 µM
[19] = second compound 3.16 µM, first compound 0.000316 µM
[20] = second compound 3.16 µM, first compound 0.001 µM
[21] = second compound 3.16 µM, first compound 0.00316 µM
[22] = second compound 3.16 µM, first compound 0.01 µM
[23] = second compound 3.16 µM, first compound 0.0316 µM
[24] = second compound 3.16 µM, first compound 0.1 µM
[25] = second compound 10 µM, first compound 0.000316 µM
[26] = second compound 10 µM, first compound 0.001 µM
[27] = second compound 10 µM, first compound 0.00316 µM
[28] = second compound 10 µM, first compound 0.01 µM
[29] = second compound 10 µM, first compound 0.0316 µM
[30] = second compound 10 µM, first compound 0.1 µM
[31] = second compound 0.1 µM, first compound 0.316 µM
[32] = second compound 0.1 µM, first compound 1 µM
[33] = second compound 0.1 µM, first compound 3.16 µM
[34] = second compound 0.1 µM, first compound 10 µM
[35] = second compound 0.316 µM, first compound 0.316 µM
[36] = second compound 0.316 µM, first compound 1 µM
[37] = second compound 0.316 µM, first compound 3.16 µM
[38] = second compound 0.316 µM, first compound 10 µM
[39] = second compound 1 µM, first compound 0.316 µM
[40] = second compound 1 µM, first compound 1 µM
[41] = second compound 1 µM, first compound 3.16 µM
[42] = second compound 1 µM, first compound 10 µM
[43] = second compound 3.16 µM, first compound 0.316 µM
[44] = second compound 3.16 µM, first compound 1 µM
[45] = second compound 3.16 µM, first compound 3.16 µM
[46] = second compound 3.16 µM, first compound 10 µM
[47] = second compound 10 µM, first compound 0.316 µM
[48] = second compound 10 µM, first compound 1 µM
[49] = second compound 10 µM, first compound 3.16 µM
[50] = second compound 10 µM, first compound 10 µM
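Also: drug exposure lasted seven days after spheroids formed for three days.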
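For viability, T/C in this document: 100% = DMSO vehicle control viability.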

CC(C)n1nc(-c2ccc3oc(N)nc3c2)c2c(N)ncnc21 + C=CC(=O)N1CCN(c2nc(=O)n(-c3c(C)ccnc3C(C)C)c3nc(-c4c(O)cccc4F)c(F)cc23)C(C)C1
IC50 (second compound 0.1 µM): < 0.316 nM | IC50 (second compound 0.316 µM): < 0.316 nM | IC50 (second compound 1 µM): < 0.316 nM | IC50 (second compound 3.16 µM): < 0.316 nM | IC50 (second compound 10 µM): < 0.316 nM | viability, T/C [1]: 21.4% | viability, T/C [2]: 17.1% | viability, T/C [3]: 14.8% | viability, T/C [4]: 11.4% | viability, T/C [5]: 9.02% | viability, T/C [6]: 8.13% | viability, T/C [7]: 20.6% | viability, T/C [8]: 20% | viability, T/C [9]: 17.2% | viability, T/C [10]: 11% | viability, T/C [11]: 8.62% | viability, T/C [12]: 7.08% | viability, T/C [13]: 23.9% | viability, T/C [14]: 14.5% | viability, T/C [15]: 14% | viability, T/C [16]: 10.8% | viability, T/C [17]: 8.47% | viability, T/C [18]: 6.2% | viability, T/C [19]: 20.2% | viability, T/C [20]: 15.8% | viability, T/C [21]: 12.9% | viability, T/C [22]: 10.2% | viability, T/C [23]: 7.41% | viability, T/C [24]: 8.01% | viability, T/C [25]: 20.3% | viability, T/C [26]: 16.8% | viability, T/C [27]: 13.4% | viability, T/C [28]: 13.1% | viability, T/C [29]: 10.9% | viability, T/C [30]: 10.3%

CC1OCC2(CCN(c3cnc(Sc4ccnc(N)c4Cl)c(N)n3)CC2)C1N (stereo not given) + C=CC(=O)N1CCN(c2nc(=O)n(-c3c(C)ccnc3C(C)C)c3nc(-c4c(O)cccc4F)c(F)cc23)C(C)C1
IC50 (second compound 0.1 µM): < 31.6 nM | IC50 (second compound 0.316 µM): < 31.6 nM | IC50 (second compound 1 µM): < 31.6 nM | IC50 (second compound 3.16 µM): < 31.6 nM | IC50 (second compound 10 µM): < 31.6 nM | viability, T/C [5]: 17.5% | viability, T/C [6]: 13.5% | viability, T/C [31]: 8.87% | viability, T/C [32]: 5.62% | viability, T/C [33]: 3.47% | viability, T/C [34]: 2.54% | viability, T/C [11]: 17.9% | viability, T/C [12]: 13.2% | viability, T/C [35]: 8.99% | viability, T/C [36]: 4.26% | viability, T/C [37]: 2.66% | viability, T/C [38]: 2.19% | viability, T/C [17]: 16.2% | viability, T/C [18]: 15.9% | viability, T/C [39]: 10.2% | viability, T/C [40]: 4.27% | viability, T/C [41]: 5.62% | viability, T/C [42]: 2.9% | viability, T/C [23]: 16.6% | viability, T/C [24]: 11.6% | viability, T/C [43]: 7.63% | viability, T/C [44]: 4% | viability, T/C [45]: 1.9% | viability, T/C [46]: 3.71% | viability, T/C [29]: 17.6% | viability, T/C [30]: 13.8% | viability, T/C [47]: 8.61% | viability, T/C [48]: 4.3% | viability, T/C [49]: 3.58% | viability, T/C [50]: 3.08%

CC(=O)Nc1cccc(-n2c(=O)n(C3CC3)c(=O)c3c(Nc4ccc(I)cc4F)n(C)c(=O)c(C)c32)c1 + CNCc1ccccc1-c1csc(C(C)Nc2nc(C)nc3cc(OC)c(OC)cc23)c1
IC50 (second compound 0.1 µM): 2.08 nM | IC50 (second compound 0.316 µM): 0.799 nM | IC50 (second compound 1 µM): 0.813 nM | IC50 (second compound 3.16 µM): < 0.1 nM | IC50 (second compound 10 µM): < 0.1 nM | viability, T/C (second compound 0.1 µM, first compound 0.0001 µM): 73.6% | viability, T/C [1]: 68.3% | viability, T/C [2]: 49.1% | viability, T/C [3]: 52.5% | viability, T/C [4]: 29.4% | viability, T/C [5]: 11.6% | viability, T/C (second compound 0.316 µM, first compound 0.0001 µM): 65.1% | viability, T/C [7]: 54.7% | viability, T/C [8]: 47.8% | viability, T/C [9]: 33.4% | viability, T/C [10]: 39% | viability, T/C [11]: 8.76% | viability, T/C (second compound 1 µM, first compound 0.0001 µM): 61.8% | viability, T/C [13]: 63.2% | viability, T/C [14]: 46.9% | viability, T/C [15]: 26.8% | viability, T/C [16]: 17.9% | viability, T/C [17]: 8.07% | viability, T/C (second compound 3.16 µM, first compound 0.0001 µM): 2.63% | viability, T/C [19]: 1.14% | viability, T/C [20]: 0.22% | viability, T/C [21]: 0.57% | viability, T/C [22]: 0.29% | viability, T/C [23]: 0.3% | viability, T/C (second compound 10 µM, first compound 0.0001 µM): 1.49% | viability, T/C [25]: 0.17% | viability, T/C [26]: 0.53% | viability, T/C [27]: 0.14% | viability, T/C [28]: 0.14% | viability, T/C [29]: 0.24%

CC(=O)OC12COC1CC(O)C1(C)C(=O)C(O)C3=C(C)C(OC(=O)C(O)C(NC(=O)OC(C)(C)C)c4ccccc4)CC(O)(C(OC(=O)c4ccccc4)C21)C3(C)C (stereo not given) + CNCc1ccccc1-c1csc(C(C)Nc2nc(C)nc3cc(OC)c(OC)cc23)c1
IC50 (second compound 0.1 µM): < 10 nM | IC50 (second compound 0.316 µM): < 10 nM | IC50 (second compound 1 µM): < 10 nM | IC50 (second compound 3.16 µM): < 10 nM | IC50 (second compound 10 µM): < 10 nM | viability, T/C [4]: 48.5% | viability, T/C [5]: 46.4% | viability, T/C [6]: 43.9% | viability, T/C [31]: 47.1% | viability, T/C [32]: 61.4% | viability, T/C [33]: 53.6% | viability, T/C [10]: 35.6% | viability, T/C [11]: 34.3% | viability, T/C [12]: 34.4% | viability, T/C [35]: 42.4% | viability, T/C [36]: 39.5% | viability, T/C [37]: 40% | viability, T/C [16]: 44% | viability, T/C [17]: 40.9% | viability, T/C [18]: 42.2% | viability, T/C [39]: 48.3% | viability, T/C [40]: 48.1% | viability, T/C [41]: 42.1% | viability, T/C [22]: 24% | viability, T/C [23]: 0.94% | viability, T/C [24]: 0.36% | viability, T/C [43]: 0.26% | viability, T/C [44]: 0.19% | viability, T/C [45]: 37.5% | viability, T/C [28]: 0.6% | viability, T/C [29]: 0.13% | viability, T/C [30]: 0.43% | viability, T/C [47]: 0.19% | viability, T/C [48]: 42.7% | viability, T/C [49]: 0.85%

CC1(C)CCC(CN2CCN(c3ccc(C(=O)NS(=O)(=O)c4ccc(NCC5CCOCC5)c([N+](=O)[O-])c4)c(Oc4cnc5[nH]ccc5c4)c3)CC2)=C(c2ccc(Cl)cc2)C1 + C=CC(=O)N1CCN(c2nc(=O)n(-c3c(C)ccnc3C(C)C)c3nc(-c4c(O)cccc4F)c(F)cc23)C(C)C1
IC50 (second compound 0.1 µM): < 31.6 nM | IC50 (second compound 0.316 µM): < 31.6 nM | IC50 (second compound 1 µM): < 31.6 nM | IC50 (second compound 3.16 µM): < 31.6 nM | IC50 (second compound 10 µM): < 31.6 nM | viability, T/C [5]: 31.9% | viability, T/C [6]: 28.1% | viability, T/C [31]: 26.2% | viability, T/C [32]: 25.7% | viability, T/C [33]: 11.7% | viability, T/C [34]: 2.83% | viability, T/C [11]: 27.2% | viability, T/C [12]: 28.8% | viability, T/C [35]: 25.4% | viability, T/C [36]: 23.1% | viability, T/C [37]: 16.5% | viability, T/C [38]: 6.09% | viability, T/C [17]: 27.2% | viability, T/C [18]: 28.5% | viability, T/C [39]: 25.9% | viability, T/C [40]: 22.8% | viability, T/C [41]: 11.2% | viability, T/C [42]: 3.32% | viability, T/C [23]: 29% | viability, T/C [24]: 28.6% | viability, T/C [43]: 27.6% | viability, T/C [44]: 27.1% | viability, T/C [45]: 11.1% | viability, T/C [46]: 2.68% | viability, T/C [29]: 25.8% | viability, T/C [30]: 26.3% | viability, T/C [47]: 24.9% | viability, T/C [48]: 25.6% | viability, T/C [49]: 5.1% | viability, T/C [50]: 6.11%
